Legend:
recombinant Hsp90α = molecular target: T1, recombinant Hsp90α (Homo sapiens, UniProt P07900); experiment: Limited proteolysis-mass spectrometry of Hsp90α/geraniin complex; details: trypsin or chymotrypsin, 5:1 molar excess of geraniin, 37°C
T1 construct: purchased Assay Designs (Ann Arbor, MI, USA)
Procedure: Limited proteolysis experiments were performed on recombinant Hsp90α at 37°C, PBS 0.1% DMSO, using trypsin or chymotrypsin as proteolytic agents; 30 µL of a 3 µM Hsp90α solution were used for each experiment. Binary complex Hsp90α/geraniin was formed by incubating the protein with a 5∶1 molar excess of geraniin at 37°C for 15 min prior to proteolytic enzyme addition. Both Hsp90 and Hsp90/geraniin complex were digested using a 1∶100 (w/w) enzyme to substrate ratio. The extent of the reactions was monitored on a time−course basis by sampling the incubation mixture after 5, 15, and 30 min of digestion. Samples were analyzed by MALDITOF/MS using a MALDI micro MX (Waters). Mass data were elaborated using the Masslynx software (Waters). Preferential hydrolysis sites on Hsp90α under different conditions were identified on the basis of the fragments released during enzymatic digestion.
In an effort to identify the Hsp90α region involved in geraniin binding, a limited proteolysis−mass spectrometry−based strategy was used for the structural analysis of the Hsp90α/geraniin complex. This approach is based on the evidence that exposed, weakly structured, and flexible regions of a protein can be recognized by a proteolytic enzyme, [30]. […]

Jurkat cells = experiment: MTT cell viability, Jurkat; type: cell-based, human; details: Homo sapiens, 24 h
Procedure: (§1) To ensure logarithmic growth, cells were subcultured every two days. As control cells, human peripheral blood mononuclear cells (PBMC) were isolated from buffy coats of healthy donors (kindly provided by the Blood Center of the Hospital of Battipaglia, Salerno, Italy) by using standard Ficoll−Hypaque gradients. […] Proliferation of PBMC was induced by phytohemagglutinin (PHA) (10 µg mL^−1). Tumor and PBMC cells were treated with different concentrations of geraniin or 17-AAG to evaluate their cytotoxic effects. Stock solutions of geraniin (50 mM in DMSO) and 17-AAG (10 mM in DMSO) were stored a −20°C in the dark and diluted just before addition to the sterile culture medium. In all the experiments, the final concentration of DMSO was 0.10% (v/v).
(§2) Jurkat (2×10^4/well) and HeLa (5000/well) cells were seeded in triplicate in 96 well−plates and incubated for 24 h in the absence or presence of different concentrations of geraniin (between 0,5 µM to 50 µM) or 17-AAG (between 0,5 nM to 10 µM).
(§3) The number of viable cells was determined by using a [3–4,5-dimethyldiazol-2-yl]-2,5-diphenyl tetrazolium bromide (MTT, Sigma-Aldrich) conversion assay, according to the method described by Mosmann. […] The absorbance was measured with a microplate reader (Titertek multiskan MCC7340, LabSystems, Vienna, VA, USA) equipped with a 620 nm filter. […]

[1] = tested on: PHA-stimulated proliferating PBMC; experiment: Hypodiploidy/necrosis by flow cytometry, PHA-stimulated PBMC; type: cell-based, human; details: untreated cells 1.5±0.8%
Procedure: Jurkat and HeLa (epithelial carcinoma) cells, obtained from Cell Bank in GMP-IST (Genova, Italy) were maintained in RPMI 1640 medium or Dulbecco’s modified Eagle medium (DMEM), respectively, supplemented with 10% (v/v) FBS, 2 mM L−glutamine and antibiotics (100 U mL^−1 penicillin, 100 µg mL^−1 streptomycin) purchased from Invitrogen (Carslbad, CA, USA), at 37°C in humidified atmosphere with 5% CO2. To ensure logarithmic growth, cells were subcultured every two days. As control cells, human peripheral blood mononuclear cells (PBMC) were isolated from buffy coats of healthy donors (kindly provided by the Blood Center of the Hospital of Battipaglia, Salerno, Italy) by using standard Ficoll−Hypaque gradients. Freshly isolated PBMC contained 92.8±3.1% live cells. Proliferation of PBMC was induced by phytohemagglutinin (PHA) (10 µg mL^−1). […]
Cell DNA content was measured by propidium iodide (PI) incorporation into permeabilized cells, as described by Nicoletti et al.. […] The percentage of cells in the sub G0/G1 phase, apoptotic fraction, was quantified using CellQuest software (Becton Dickinson). The distribution of cells in G0/G1, S, G2/M phases was determined using ModFit LT cell cycle analysis software (Becton Dickinson). Results were expressed as a mean ± SD of three experiments performed in triplicate.

HeLa cells [2] = experiment: MTT cell viability, HeLa; type: cell-based, human; details: Homo sapiens, 24 h
Procedure: as §1, §2, §3

HeLa cells [3] = experiment: Cell cycle and hypodiploidy by flow cytometry (PI), HeLa; type: cell-based, human; details: 24 h, geraniin 5 µM, 17-AAG 0.2 µM
Procedure: Cell DNA content was measured by propidium iodide (PI) incorporation into permeabilized cells, as described by Nicoletti et al.. Briefly, the cells were harvested after geraniin or 17-AAG treatments were washed with cold PBS and incubated with a PI solution (0.1% sodium citrate, 0.1% Triton X-100 and 50 µg mL^−1 of prodium iodide, Sigma-Aldrich, 10 µg/ml Rnase A) for 30 min at room temperature. Data from 10.000 events per sample were collected by a FACScalibur flow cytometer (Becton Dickinson, San José, CA) and cellular debris was excluded from analysis by raising the forward scatter threshold. The percentage of cells in the sub G0/G1 phase, apoptotic fraction, was quantified using CellQuest software (Becton Dickinson). The distribution of cells in G0/G1, S, G2/M phases was determined using ModFit LT cell cycle analysis software (Becton Dickinson). Results were expressed as a mean ± SD of three experiments performed in triplicate.
Figure 6 Effects of geraniin and 17-AAG on cell cycle progression. Percentage of cell cycle stages was analyzed by flow cytometry, (A) PI-stained viable Jurkat cells treated with DMSO, 0.7 µM geraniin or 10 µM 17-AAG for 24 h.

- IC50 (Jurkat cells): 760 ± 100 nM
- IC50 (HeLa cells [2]): 5100 ± 200 nM
SMILES: O=C1O[C@H]2[C@@H]3OC(=O)c4cc(O)c(O)c(O)c4-c4c(cc(O)c(O)c4O)C(=O)OC[C@H]2O[C@@H](OC(=O)c2cc(O)c(O)c(O)c2)[C@@H]3OC(=O)c2cc(O)c(O)c3c2[C@@H]2C1=CC(=O)[C@](O)(O3)C2(O)O [Compound 54, geraniin]
- Hsp90α region involved in binding (recombinant Hsp90α): overall protection of the N−terminal region from proteolysis
- levels of hypodiploidy/necrosis [1]: 2.6±1.3%
- cell cycle arrest (HeLa cells [3]): G2/M arrest
- percentage of cells with hypodiploid nuclei (HeLa cells [3]): 16.2±0.7%
